# Ends that are not written are not given here. * marks the point of attachment. X1 = 2,3‑bis(palmitoyloxy)‑(2RS)‑propyl, CCCCCCCCCCCCCCCC(=O)OCC(C*)OC(=O)CCCCCCCCCCCCCCC; Palmitoyl = CCCCCCCCCCCCCCCC(=O)*
# Columns and labels:
# Assay type in all cases: in vivo
# CD36 = test: Liver CD36 expression by qRT-PCR in high-fat diet mice; settings: HFD mice; 10 μg/kg IP every other day for two weeks; liver total RNA, qRT-PCR (FIG. 3B)
# Method: (§1) Referring to FIGS. 3A-3B, 8-10 weeks-old male mice (n−20) were fed a high-fat diet (60% fat). […] These mice were randomly divided into 2 groups. Mice in Group 1 (n=10) received injections of 0.9% normal saline (vehicle) every other day for a duration of two weeks. Mice in Group 2 (n=10) received injections of Pam3CSK4 (SEQ ID NO: 1) (drug:10 μg/kg; IP) every other day for a duration of two weeks. Throughout the treatment period, mice were kept on a high-fat diet. Total RNA was extracted from livers and expression of PPAR-γ (FIG. 3A) and CD36 (FIG. 3B) was determined by qRT-PCR. Data presents as mean±SD.
# [1] = system: C57BL/6 mice on high-fat diet (liver steatosis); test: Liver section histology (H&E) in high-fat diet mice with liver steatosis; settings: obese HFD mice with steatosis, 10 μg/kg IP every other day for two weeks
# Method: (§2) In the experiment, 8-10 weeks-old male mice (n−20) were fed a high-fat diet (60% fat). […] These mice were randomly divided into 2 groups. Mice in Group 1(n−10) received injections of 0.9% normal saline (vehicle) every other day for a duration of two weeks. Mice in Group 2 (n−10) received injections of Pam3CSK4 (SEQ ID NO: 1) (drug:10 μg/kg; IP) every other day for a duration of two weeks. Throughout the treatment period, mice were kept on a high-fat diet. A) Liver sections of the mice were stained with H&E. Referring to FIG. 2, fasting blood glucose was reduced in the mice treated with Pam3CSK4 (SEQ ID NO: 1) compared to mice treated with a vehicle. […] By non-limiting example, a vehicle may be saline, a sugar water solution, or other similar substances that may be injected without affecting the subject directly. Data is presented as mean±SD.
# PPAR-γ = test: Liver PPAR-γ expression by qRT-PCR in high-fat diet mice; settings: HFD mice; 10 μg/kg IP every other day for two weeks; liver total RNA, qRT-PCR (FIG. 3A)
# Method: as §1
# [2] = system: C57BL/6 mice on high-fat diet (impaired glucose homeostasis); test: Fasting blood glucose in high-fat diet mice; settings: HFD mice; 10 μg/kg IP every other day for two weeks; compared to vehicle (FIG. 2)
# Method: as §2
substance,measurement,setting,value
"Pam3CysSerLys4 (Palmitoyl-C(X1)SKKKK) [Pam3CSK4, a synthetic triacylated lipopeptide (LP) and a TLR2/TLR1 ligand]",CD36 expression in the liver,CD36,suppressed
same,normal liver without any fat in treated mice,[1],100%
same,hepatic fat accumulation,[1]; vs vehicle,effectively reduces hepatic fat accumulation
same,PPAR-γ expression in the liver,PPAR-γ,suppressed
same,fasting blood glucose (FBG),[2],reduced

# From patent US12502416B1, “PAM3CSK4 injection for the prevention and management of MASLD” (DASMAN DIABETES INSTITUTE, priority 2025, dated 2025)
